Laboratory results reported in patent US20080009418A1, “Selective Inhibitors” (Alchemia LTD., priority 2004, published 2008).

Experiments:
[1] = biological target: T1, Human μ-opioid (MOP) (Homo sapiens, UniProt P35372); assay: Radioligand binding, human μ-opioid (MOP) membranes, FlashPlate, [3H]-Naloxone; conditions: compound at 10 μM, [3H]-Naloxone
T1 construct: purchased Perkin Elmer Biosignal
Procedure, shortened: (§1)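 Cloned human receptor membranes were coated onto FlashPlate wells and incubated with radioligand and compound (added from a 0.5 mM DMSO daughter plate) for 1 hour at room temperature in the dark. Scintillation counting gave percent inhibition, with DMSO defining total and reference ligand defining non-specific binding.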

[2] = biological target: T2, Human Melanocortin (MC3) (Homo sapiens, UniProt P41968); assay: Radioligand binding, human melanocortin MC3 membranes, FlashPlate, [125I]-NDP-αMSH; conditions: compound at 10 μM, [125I]-NDP-αMSH
T2 construct: purchased Perkin Elmer Biosignal
T2 sequence (P41968 whole entry): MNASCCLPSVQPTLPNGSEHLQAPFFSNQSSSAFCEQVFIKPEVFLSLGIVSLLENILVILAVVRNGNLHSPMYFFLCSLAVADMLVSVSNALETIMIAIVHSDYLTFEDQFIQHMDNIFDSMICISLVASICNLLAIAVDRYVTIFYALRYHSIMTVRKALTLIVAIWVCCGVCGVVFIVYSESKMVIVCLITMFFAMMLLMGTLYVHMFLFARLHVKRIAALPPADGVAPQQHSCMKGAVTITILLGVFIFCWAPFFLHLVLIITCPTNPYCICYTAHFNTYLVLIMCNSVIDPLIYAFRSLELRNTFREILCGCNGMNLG
Procedure, shortened: as §1

[3] = biological target: T3, Mouse urotensin (mUR2) (Mus musculus, UniProt Q8VIH9); assay: Radioligand binding, mouse urotensin mUR2 membranes, FlashPlate, [125I]-Urotensin II; conditions: compound at 10 μM, [125I]-Urotensin II
T3 construct: purchased Perkin Elmer Biosignal
T3 sequence (Q8VIH9 1-385): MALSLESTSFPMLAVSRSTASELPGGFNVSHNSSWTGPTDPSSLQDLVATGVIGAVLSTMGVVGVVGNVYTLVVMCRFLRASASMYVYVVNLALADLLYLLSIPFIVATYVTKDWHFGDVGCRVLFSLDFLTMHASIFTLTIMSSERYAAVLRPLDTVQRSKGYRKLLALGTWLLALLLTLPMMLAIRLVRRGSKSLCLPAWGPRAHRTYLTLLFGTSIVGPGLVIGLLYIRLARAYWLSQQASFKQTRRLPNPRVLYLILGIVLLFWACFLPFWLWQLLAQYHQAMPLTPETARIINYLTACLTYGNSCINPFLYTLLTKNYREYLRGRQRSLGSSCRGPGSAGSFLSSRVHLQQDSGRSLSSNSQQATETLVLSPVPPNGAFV
Procedure, shortened: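 Cloned mouse urotensin (mUR2) receptor membranes from Perkin Elmer Biosignal were immobilized in FlashPlate microplates using a proprietary coating. Each well got 19.5 μl buffer, then 0.5 μl of DMSO, reference ligand, or compound. Adding 5 μl of [125I]-Urotensin II, diluted to 5× final concentration in binding buffer, started binding. Plates were sealed with TopSeal-A and incubated 1 hour at room temperature in the dark. Wells were counted for 30 seconds each on a TopCount after a 60-second delay, and percentage inhibition was calculated.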

[4] = biological target: T4, Human δ-opioid (DOP) (Homo sapiens, UniProt P41143); assay: Radioligand binding, human δ-opioid (DOP) membranes, FlashPlate, [3H]-Bremazocine; conditions: compound at 10 μM, [3H]-Bremazocine
T4 construct: purchased Perkin Elmer Biosignal
T4 sequence (P41143 whole entry): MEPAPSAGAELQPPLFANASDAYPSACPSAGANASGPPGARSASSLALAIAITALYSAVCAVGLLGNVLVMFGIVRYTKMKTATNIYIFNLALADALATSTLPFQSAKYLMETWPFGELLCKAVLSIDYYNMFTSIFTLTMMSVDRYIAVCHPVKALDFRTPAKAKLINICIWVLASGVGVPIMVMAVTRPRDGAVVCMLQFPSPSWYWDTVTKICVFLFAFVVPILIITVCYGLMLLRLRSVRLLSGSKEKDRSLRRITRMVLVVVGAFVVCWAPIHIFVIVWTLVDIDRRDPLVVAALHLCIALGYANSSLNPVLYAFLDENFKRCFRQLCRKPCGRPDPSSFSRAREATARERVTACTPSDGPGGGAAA
Procedure, shortened: as §1

[5] = biological target: T5, Human melanin-concentrating hormone (MCH1) (Homo sapiens, UniProt Q99705); assay: Radioligand binding, human melanin-concentrating hormone MCH1 membranes, FlashPlate, [125I]-S36057; conditions: compound at 10 μM
T5 construct: purchased Perkin Elmer Biosignal
T5 sequence (Q99705 whole entry): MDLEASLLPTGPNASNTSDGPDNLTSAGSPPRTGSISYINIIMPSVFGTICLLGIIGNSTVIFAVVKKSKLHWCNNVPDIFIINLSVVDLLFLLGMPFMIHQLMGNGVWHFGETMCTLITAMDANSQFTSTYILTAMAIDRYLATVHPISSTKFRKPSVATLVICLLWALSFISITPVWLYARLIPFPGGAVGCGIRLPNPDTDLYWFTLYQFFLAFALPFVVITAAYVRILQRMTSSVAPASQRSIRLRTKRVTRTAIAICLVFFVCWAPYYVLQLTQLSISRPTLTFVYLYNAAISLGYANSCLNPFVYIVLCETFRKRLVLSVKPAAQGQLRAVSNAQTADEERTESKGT
Procedure, shortened: as §1

[6] = biological target: T6, Human neurokinin (NK1) (Homo sapiens, UniProt P25103); assay: Radioligand binding, human neurokinin NK1 membranes, filtration, [125I]-Substance P; conditions: compound at 10 μM, [125I]-Substance P
T6 construct: purchased Perkin Elmer Biosignal
T6 sequence (P25103 whole entry): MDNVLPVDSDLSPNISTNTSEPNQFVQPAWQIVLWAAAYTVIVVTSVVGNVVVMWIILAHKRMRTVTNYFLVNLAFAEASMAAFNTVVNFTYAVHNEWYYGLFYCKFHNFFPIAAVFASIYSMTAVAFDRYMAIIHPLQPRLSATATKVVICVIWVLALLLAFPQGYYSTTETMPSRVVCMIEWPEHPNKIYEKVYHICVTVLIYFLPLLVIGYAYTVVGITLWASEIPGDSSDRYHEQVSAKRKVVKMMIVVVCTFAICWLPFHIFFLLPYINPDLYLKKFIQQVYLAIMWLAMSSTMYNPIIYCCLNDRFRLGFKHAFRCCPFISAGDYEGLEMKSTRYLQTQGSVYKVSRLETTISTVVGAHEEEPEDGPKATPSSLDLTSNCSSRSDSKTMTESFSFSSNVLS
Procedure, shortened: (§2)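 Percent inhibition of radioligand binding measured on recombinant human membranes: NK1 with [125I]-Substance P, KOP with [3H]-Diprenorphine. Incubation 1 h at room temperature, then harvest onto 0.3% PEI-soaked filters, cold Tris-HCl pH 7.4 washes and scintillation counting; non-specific binding from reference ligand wells.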

[7] = biological target: T7, Human κ-Opioid (KOP) (Homo sapiens, UniProt P41145); assay: Radioligand binding, human κ-opioid (KOP) membranes, filtration, [3H]-Diprenorphine; conditions: compound at 10 μM, [3H]-Diprenorphine
T7 construct: purchased Perkin Elmer Biosignal
T7 sequence (P41145 whole entry): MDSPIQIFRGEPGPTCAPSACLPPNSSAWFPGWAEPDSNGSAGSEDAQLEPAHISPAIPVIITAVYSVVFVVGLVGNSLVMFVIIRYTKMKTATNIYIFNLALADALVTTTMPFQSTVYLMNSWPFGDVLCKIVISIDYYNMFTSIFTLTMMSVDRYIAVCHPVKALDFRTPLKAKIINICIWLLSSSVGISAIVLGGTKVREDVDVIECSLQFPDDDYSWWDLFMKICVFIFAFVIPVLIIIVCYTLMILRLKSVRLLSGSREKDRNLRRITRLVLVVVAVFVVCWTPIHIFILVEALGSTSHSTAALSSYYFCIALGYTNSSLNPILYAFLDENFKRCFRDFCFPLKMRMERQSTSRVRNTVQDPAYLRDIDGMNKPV
Procedure, shortened: as §2

[8] = biological target: T8, Human neuropeptide Y (NPY-Y1) (Homo sapiens, UniProt P25929); assay: Radioligand binding, human neuropeptide Y NPY-Y1 membranes, FlashPlate, [125I]-PYY; conditions: compound at 10 μM, [125I]-PYY
T8 construct: purchased Perkin Elmer Biosignal
T8 sequence (P25929 1-384): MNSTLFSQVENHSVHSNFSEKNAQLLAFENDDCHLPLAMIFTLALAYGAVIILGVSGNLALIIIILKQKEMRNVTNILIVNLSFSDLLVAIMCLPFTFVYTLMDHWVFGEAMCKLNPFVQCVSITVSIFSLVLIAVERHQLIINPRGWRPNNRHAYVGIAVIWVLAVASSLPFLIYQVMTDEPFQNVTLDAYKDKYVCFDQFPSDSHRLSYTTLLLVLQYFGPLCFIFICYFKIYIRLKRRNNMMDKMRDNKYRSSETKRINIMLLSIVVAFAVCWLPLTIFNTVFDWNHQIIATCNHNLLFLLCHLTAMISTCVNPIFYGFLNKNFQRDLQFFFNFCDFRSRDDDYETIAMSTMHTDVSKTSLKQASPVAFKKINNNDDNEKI
Procedure, shortened: as §1

[9] = biological target: T9, Human melanocortin (MC5) (Homo sapiens, UniProt P33032); assay: Radioligand binding, human melanocortin MC5 membranes, FlashPlate, [125I]-NDP-αMSH; conditions: compound at 10 μM, [125I]-NDP-αMSH
T9 construct: purchased Perkin Elmer Biosignal
T9 sequence (P33032 whole entry): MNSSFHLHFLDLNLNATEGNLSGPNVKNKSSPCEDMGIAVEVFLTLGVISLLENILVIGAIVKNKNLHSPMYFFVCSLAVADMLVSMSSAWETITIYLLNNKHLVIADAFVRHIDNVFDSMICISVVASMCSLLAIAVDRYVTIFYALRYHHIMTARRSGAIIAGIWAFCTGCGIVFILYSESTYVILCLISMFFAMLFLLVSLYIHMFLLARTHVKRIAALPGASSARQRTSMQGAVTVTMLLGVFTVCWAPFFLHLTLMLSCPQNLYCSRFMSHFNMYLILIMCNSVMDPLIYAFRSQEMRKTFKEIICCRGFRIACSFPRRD
Procedure, shortened: as §1

[10] = biological target: T10, Human opioid (ORL1) (Homo sapiens, UniProt P41146); assay: Radioligand binding, human opioid ORL1 membranes, FlashPlate, [125I]-Nociceptin; conditions: compound at 10 μM, [125I]-Nociceptin
T10 construct: purchased Perkin Elmer Biosignal
T10 sequence (P41146 whole entry): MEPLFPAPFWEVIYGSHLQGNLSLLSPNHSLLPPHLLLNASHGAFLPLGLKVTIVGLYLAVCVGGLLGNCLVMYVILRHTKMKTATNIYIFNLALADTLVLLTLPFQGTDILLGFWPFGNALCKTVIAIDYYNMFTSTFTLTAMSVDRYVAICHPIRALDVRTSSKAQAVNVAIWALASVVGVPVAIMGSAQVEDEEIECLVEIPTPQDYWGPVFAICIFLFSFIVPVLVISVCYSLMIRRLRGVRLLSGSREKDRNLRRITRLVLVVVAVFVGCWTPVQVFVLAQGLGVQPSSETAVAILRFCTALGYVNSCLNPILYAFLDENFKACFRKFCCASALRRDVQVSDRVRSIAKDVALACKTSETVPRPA
Procedure, shortened: as §1

[11] = biological target: T11, Human Melanocortin (MC4) (Homo sapiens, UniProt P32245); assay: Radioligand binding, human melanocortin MC4 membranes, FlashPlate, [125I]-NDP-αMSH; conditions: compound at 10 μM, [125I]-NDP-αMSH
T11 construct: purchased Perkin Elmer Biosignal
T11 sequence (P32245 whole entry): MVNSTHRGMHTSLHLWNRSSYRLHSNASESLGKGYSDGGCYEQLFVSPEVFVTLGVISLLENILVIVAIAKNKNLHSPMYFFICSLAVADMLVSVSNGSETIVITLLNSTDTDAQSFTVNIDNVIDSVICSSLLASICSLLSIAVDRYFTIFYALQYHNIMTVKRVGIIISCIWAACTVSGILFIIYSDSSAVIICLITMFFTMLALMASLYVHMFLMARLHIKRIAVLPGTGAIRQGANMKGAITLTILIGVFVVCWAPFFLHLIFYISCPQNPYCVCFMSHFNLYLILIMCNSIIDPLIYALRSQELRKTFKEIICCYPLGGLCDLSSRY
Procedure, shortened: as §1

T1 sequence (P35372 whole entry): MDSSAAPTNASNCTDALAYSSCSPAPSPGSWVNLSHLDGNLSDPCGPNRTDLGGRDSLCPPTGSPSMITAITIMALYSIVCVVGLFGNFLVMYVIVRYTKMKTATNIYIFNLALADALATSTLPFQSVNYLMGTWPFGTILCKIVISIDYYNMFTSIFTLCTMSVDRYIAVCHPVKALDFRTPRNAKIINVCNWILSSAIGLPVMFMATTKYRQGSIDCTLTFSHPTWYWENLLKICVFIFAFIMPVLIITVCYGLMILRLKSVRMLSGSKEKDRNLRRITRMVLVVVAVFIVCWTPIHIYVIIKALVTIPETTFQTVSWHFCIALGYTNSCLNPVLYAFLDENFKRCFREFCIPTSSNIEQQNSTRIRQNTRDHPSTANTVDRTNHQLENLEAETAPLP

COCC1OC(OCc2ccc3ccccc3c2)C(NC(=O)CCCN)C(OCc2ccccc2)C1O (stereo not drawn) [compound 233]
A7: inhibition of radioligand binding ([1]; FlashPlate): − (“−” indicates less than 50% inhibition at 10 μM)
A3: inhibition of radioligand binding ([2]; FlashPlate): − (“−” indicates less than 50% inhibition at 10 μM)
A11: inhibition of radioligand binding ([3]; FlashPlate): − (“−” indicates less than 50% inhibition at 10 μM)
A1: inhibition of radioligand binding ([4]; FlashPlate): − (“−” indicates less than 50% inhibition at 10 μM)
A6: inhibition of radioligand binding ([5]; [125I]-S36057, FlashPlate): − (“−” indicates less than 50% inhibition at 10 μM)
A8: inhibition of radioligand binding ([6]; filtration): + (“+” indicates greater than 50% inhibition at 10 μM)
A2: inhibition of radioligand binding ([7]; filtration): − (“−” indicates less than 50% inhibition at 10 μM)
A9: inhibition of radioligand binding ([8]; FlashPlate): − (“−” indicates less than 50% inhibition at 10 μM)
A5: inhibition of radioligand binding ([9]; FlashPlate): − (“−” indicates less than 50% inhibition at 10 μM)
A10: inhibition of radioligand binding ([10]; FlashPlate): − (“−” indicates less than 50% inhibition at 10 μM)
A4: inhibition of radioligand binding ([11]; FlashPlate): − (“−” indicates less than 50% inhibition at 10 μM)

CSC1OC(COCc2ccc3ccccc3c2)C(O)C(OCc2ccc3ccccc3c2)C1NC(=O)CNC(=N)N (stereo not drawn) [compound 317]
A7: inhibition of radioligand binding, human μ-opioid (MOP) [1]: − (“−” indicates less than 50% inhibition at 10 μM)
A3: inhibition of radioligand binding, human melanocortin (MC3) [2]: − (“−” indicates less than 50% inhibition at 10 μM)
A11: inhibition of radioligand binding, mouse urotensin (mUR2) [3]: − (“−” indicates less than 50% inhibition at 10 μM)
A1: inhibition of radioligand binding, human δ-opioid (DOP) [4]: − (“−” indicates less than 50% inhibition at 10 μM)
A6: inhibition of radioligand binding, human melanin-concentrating hormone (MCH1) ([5]; [125I]-S36057): − (“−” indicates less than 50% inhibition at 10 μM)
A8: inhibition of radioligand binding, human neurokinin (NK1) [6]: + (“+” indicates greater than 50% inhibition at 10 μM)
A2: inhibition of radioligand binding, human κ-opioid (KOP) [7]: − (“−” indicates less than 50% inhibition at 10 μM)
A9: inhibition of radioligand binding, human neuropeptide Y (NPY-Y1) [8]: − (“−” indicates less than 50% inhibition at 10 μM)
A5: inhibition of radioligand binding, human melanocortin (MC5) [9]: + (“+” indicates greater than 50% inhibition at 10 μM)
A10: inhibition of radioligand binding, human opioid (ORL1) [10]: − (“−” indicates less than 50% inhibition at 10 μM)
A4: inhibition of radioligand binding, human melanocortin (MC4) [11]: − (“−” indicates less than 50% inhibition at 10 μM)

CO[C@H]1[C@H](O)[C@@H](COCc2cccc(O)c2)OC(OCc2ccc3ccccc3c2)[C@@H]1NC(=O)CCCNC(=N)N (stereo partly drawn) [compound 152]
A7 radioligand binding, percentage inhibition [1]: + (“+” indicates greater than 50% inhibition at 10 μM)
A3 radioligand binding, percentage inhibition [2]: − (“−” indicates less than 50% inhibition at 10 μM)
A11 radioligand binding, percentage inhibition [3]: − (“−” indicates less than 50% inhibition at 10 μM)
A1 radioligand binding, percentage inhibition [4]: − (“−” indicates less than 50% inhibition at 10 μM)
A6 radioligand binding, percentage inhibition ([5]; [125I]-S36057): − (“−” indicates less than 50% inhibition at 10 μM)
A8 radioligand binding, percentage inhibition [6]: − (“−” indicates less than 50% inhibition at 10 μM)
A2 radioligand binding, percentage inhibition [7]: − (“−” indicates less than 50% inhibition at 10 μM)
A9 radioligand binding, percentage inhibition [8]: − (“−” indicates less than 50% inhibition at 10 μM)
A5 radioligand binding, percentage inhibition [9]: − (“−” indicates less than 50% inhibition at 10 μM)
A10 radioligand binding, percentage inhibition [10]: − (“−” indicates less than 50% inhibition at 10 μM)
A4 radioligand binding, percentage inhibition [11]: − (“−” indicates less than 50% inhibition at 10 μM)
